According to BindingDB's records for patent US9427428 (Janssen Ireland, 2016):

Biological target: T1, Genome polyprotein [810-3010] (Hepatitis C virus genotype 1b (isolate Con1), UniProt Q9WMX2)
T1 construct: 810-3010
Assay: Stable Replicon Assay
Source text: The assay utilized the stably transfected cell line Huh-7 luc/neo (hereafter referred to as Huh-Luc). This cell line harbors an RNA encoding a bicistronic expression construct comprising the wild type NS3-NS5B regions of HCV type 1b translated from an Internal Ribosome Entry Site (IRES) from encephalomyocarditis virus (EMCV), preceded by a reporter portion (FfL-luciferase), and a selectable marker portion (neoR, neomycine phosphotransferase). The construct is flanked by 5' and 3' NTRs (non-translated regions) from HCV type 1b. Continued culture of the replicon cells in the presence of G418 (neoR) is dependent on the replication of the HCV RNA. The stably transfected replicon cells that replicate HCV RNA autonomously and to high levels, encoding inter alia luciferase, were used for screening the antiviral compounds. The replicon cells were plated in 384 well plates in the presence of the test and control compounds which were added in various concentrations. Following an incubation of three days, HCV replication was measured by assaying luciferase activity (using standard luciferase assay substrates and reagents and a Perkin Elmer ViewLux™ ultraHTS microplate imager). […] The inhibitory activity of the compound was monitored on the Huh-Luc cells, enabling a dose-response curve for each test compound.

T1 sequence (Q9WMX2 810-3010): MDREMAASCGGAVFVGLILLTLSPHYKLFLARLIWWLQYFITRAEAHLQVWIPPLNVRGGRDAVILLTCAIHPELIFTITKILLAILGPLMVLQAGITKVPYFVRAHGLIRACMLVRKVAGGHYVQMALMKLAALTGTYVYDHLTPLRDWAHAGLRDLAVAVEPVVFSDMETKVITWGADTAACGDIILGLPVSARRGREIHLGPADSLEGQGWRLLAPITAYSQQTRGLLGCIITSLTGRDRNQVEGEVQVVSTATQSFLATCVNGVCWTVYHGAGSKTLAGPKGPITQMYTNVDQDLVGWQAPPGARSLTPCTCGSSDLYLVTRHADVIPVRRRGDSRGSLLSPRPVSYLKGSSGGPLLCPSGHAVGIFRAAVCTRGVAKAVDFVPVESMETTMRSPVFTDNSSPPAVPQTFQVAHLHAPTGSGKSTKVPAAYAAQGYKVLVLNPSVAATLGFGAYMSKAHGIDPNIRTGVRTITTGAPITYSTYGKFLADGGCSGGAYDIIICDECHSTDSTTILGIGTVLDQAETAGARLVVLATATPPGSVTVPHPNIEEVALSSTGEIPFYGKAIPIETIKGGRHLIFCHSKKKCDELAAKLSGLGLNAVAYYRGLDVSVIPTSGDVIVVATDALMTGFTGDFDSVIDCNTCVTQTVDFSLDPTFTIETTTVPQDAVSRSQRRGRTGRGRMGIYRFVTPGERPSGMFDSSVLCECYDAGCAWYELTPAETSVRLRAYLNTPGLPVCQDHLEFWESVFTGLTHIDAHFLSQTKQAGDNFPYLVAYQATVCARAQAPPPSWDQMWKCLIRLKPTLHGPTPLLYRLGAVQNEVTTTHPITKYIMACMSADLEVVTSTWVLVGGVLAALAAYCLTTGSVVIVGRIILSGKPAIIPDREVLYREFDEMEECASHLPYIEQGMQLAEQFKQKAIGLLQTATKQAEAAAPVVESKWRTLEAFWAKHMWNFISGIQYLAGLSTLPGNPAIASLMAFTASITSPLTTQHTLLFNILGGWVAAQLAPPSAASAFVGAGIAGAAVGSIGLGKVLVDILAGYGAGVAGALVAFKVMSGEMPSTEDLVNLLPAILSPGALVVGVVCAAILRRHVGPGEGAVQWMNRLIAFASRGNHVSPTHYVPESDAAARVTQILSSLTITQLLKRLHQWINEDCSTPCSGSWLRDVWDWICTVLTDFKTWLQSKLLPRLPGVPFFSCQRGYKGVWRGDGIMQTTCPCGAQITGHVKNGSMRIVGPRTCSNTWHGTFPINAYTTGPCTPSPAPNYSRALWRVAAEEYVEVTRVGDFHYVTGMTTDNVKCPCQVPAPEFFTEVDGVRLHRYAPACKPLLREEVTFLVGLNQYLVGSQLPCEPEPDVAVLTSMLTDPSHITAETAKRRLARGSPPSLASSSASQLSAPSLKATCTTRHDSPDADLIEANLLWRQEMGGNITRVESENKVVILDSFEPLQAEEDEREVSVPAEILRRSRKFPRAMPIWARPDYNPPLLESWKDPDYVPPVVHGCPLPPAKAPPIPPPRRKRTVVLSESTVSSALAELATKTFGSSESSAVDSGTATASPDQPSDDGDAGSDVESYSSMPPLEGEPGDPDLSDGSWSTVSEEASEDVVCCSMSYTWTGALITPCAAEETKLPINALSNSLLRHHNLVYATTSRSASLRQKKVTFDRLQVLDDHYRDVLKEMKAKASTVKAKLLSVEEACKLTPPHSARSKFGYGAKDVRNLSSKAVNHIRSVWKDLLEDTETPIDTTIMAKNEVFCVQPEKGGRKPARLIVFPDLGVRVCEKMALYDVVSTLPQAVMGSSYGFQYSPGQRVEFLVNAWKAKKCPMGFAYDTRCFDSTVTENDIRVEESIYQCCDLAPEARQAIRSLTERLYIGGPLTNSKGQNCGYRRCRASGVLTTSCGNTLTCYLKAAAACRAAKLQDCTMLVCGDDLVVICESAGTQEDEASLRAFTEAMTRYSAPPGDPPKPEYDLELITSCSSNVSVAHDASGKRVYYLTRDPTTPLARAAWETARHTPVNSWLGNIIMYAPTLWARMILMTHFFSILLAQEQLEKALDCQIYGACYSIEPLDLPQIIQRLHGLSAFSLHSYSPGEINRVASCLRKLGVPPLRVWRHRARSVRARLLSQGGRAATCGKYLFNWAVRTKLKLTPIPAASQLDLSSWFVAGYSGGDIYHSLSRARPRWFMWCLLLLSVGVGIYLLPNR

CC[C@H](C)[C@H](NC(=O)OC)C(=O)N1CCC[C@H]1c1ncc(-c2ccc3cc(-c4ccc5[nH]c([C@@H]6CCCN6C(=O)[C@@H](NC(=O)OC)[C@@H](C)OC)nc5c4)ccc3c2)[nH]1 [US9427428, 21]
EC50: 2.2 nM
